Values joined by “and” are separate entries in the source; they are usually repeats but may differ in a detail not shown here. Identical values can stand only once. Like-named read-outs stand apart in the source and are kept apart here.
Tested on: SARS2
Format: cell-based, SARS-CoV-2
Settings: for Percentage Infection Relative to Appropriate DMSO Control / Infection Data: Percentage Infection Relative to Appropriate DMSO Control / Percentage Infection Relative to Appropriate DMSO Control, Mean / Infection Data, Percentage Infection Relative to Appropriate DMSO Control: avg background subtraction; for Infection Data: Percentage Infection Relative to Appropriate DMSO Control: replicate wells; for Infection Data: Average, Mean: average of Exp 1-3 (SMW475, SMW477, SMW478), n 9; for Infection Data, Average, Mean percentage infection relative to DMSO control: Average of Exp 1 (SMW491) and Exp 2 (SMW492); for Percentage Infection Relative to Appropriate DMSO Control, Mean: Average of Exp 1 and Exp 2, n=4; for Infection Data, Percentage Infection Relative to Appropriate DMSO Control: single well

COc1ccc(CNCCc2ccccc2F)c(OCC(O)CN2CCN(C)CC2)c1 (racemic) [UMB18G]
Percentage Infection Relative to Appropriate DMSO Control (1 uM, Exp 1 (SMW454), single wells): 79.68% and 100.00% and 102.30%
Infection Data: Percentage Infection Relative to Appropriate DMSO Control (1 uM, Exp 1 (SMW475)): 59.52% and 81.22% and 48.39%
Infection Data: Percentage Infection Relative to Appropriate DMSO Control (1 uM, Exp 2 (SMW477)): 30.54% and 44.61% and 49.97%
Infection Data: Percentage Infection Relative to Appropriate DMSO Control (1 uM, Exp 3 (SMW478)): 92.92% and 83.96% and 93.97%
Infection Data: Average, Mean (1 uM): 65.01%
Percentage Infection Relative to Appropriate DMSO Control (5 uM, Exp 1 (SMW454), single wells): 82.33% and 99.01% and 94.32%
Infection Data: Percentage Infection Relative to Appropriate DMSO Control (5 uM, Exp 1 (SMW475)): 11.41% and 21.71% and 5.92%
Infection Data: Percentage Infection Relative to Appropriate DMSO Control (5 uM, Exp 2 (SMW477)): 9.13% and 26.77% and 20.94%
Infection Data: Percentage Infection Relative to Appropriate DMSO Control (5 uM, Exp 3 (SMW478)): 28.65% and 43.74% and 34.06%
Infection Data: Average, Mean (5 uM): 22.48%
Percentage Infection Relative to Appropriate DMSO Control (10 uM, Exp 1 (SMW454), single wells): 84.64% and 105.70% and 105.02%
Infection Data: Percentage Infection Relative to Appropriate DMSO Control (10 uM, Exp 1 (SMW475)): 7.16% and 14.38% and 4.59%
Infection Data: Percentage Infection Relative to Appropriate DMSO Control (10 uM, Exp 2 (SMW477)): 10.76% and 16.40% and 10.07%
Infection Data: Percentage Infection Relative to Appropriate DMSO Control (10 uM, Exp 3 (SMW478)): 46.05% and 27.62% and 30.93%
Infection Data: Average, Mean (10 uM): 18.66%
Percentage Infection Relative to Appropriate DMSO Control (25 uM, Exp 1 (SMW454), single wells): 54.89% and 58.50% and 60.94%
Infection Data: Percentage Infection Relative to Appropriate DMSO Control (25 uM, Exp 1 (SMW475)): 0.07% and −0.35% and −1.40%
Infection Data: Percentage Infection Relative to Appropriate DMSO Control (25 uM, Exp 2 (SMW477)): 1.11% and 0.67% and 1.76%
Infection Data: Percentage Infection Relative to Appropriate DMSO Control (25 uM, Exp 3 (SMW478)): 3.99% and 4.14% and 2.78%
Infection Data: Average, Mean (25 uM): 1.42%
Percentage Infection Relative to Appropriate DMSO Control (50 uM, Exp 1 (SMW454), single wells): 28.95% and 40.45% and 40.98%
Infection Data: Percentage Infection Relative to Appropriate DMSO Control (50 uM, Exp 1 (SMW475)): −0.48% and −1.48% and 0.34%
Infection Data: Percentage Infection Relative to Appropriate DMSO Control (50 uM, Exp 2 (SMW477)): 1.36% and 0.07% and 1.60%
Infection Data: Percentage Infection Relative to Appropriate DMSO Control (50 uM, Exp 3 (SMW478)): 0.69% and 2.33% and 1.45%
Infection Data: Average, Mean (50 uM): 0.65%
Infection Data, Average, Mean percentage infection relative to DMSO control (n=4, 1 uM): 65.84% and 39.37% and 49.93% and 57.24%
Infection Data, Average, Mean percentage infection relative to DMSO control (n=4, 5 uM): 54.32% and 40.70% and 42.82% and 28.04%
Infection Data, Average, Mean percentage infection relative to DMSO control (n=4, 10 uM): 8.53% and 5.08% and 5.96% and 7.33%
Infection Data, Average, Mean percentage infection relative to DMSO control (n=4, 25 uM): 11.20% and 7.36% and 4.36% and 11.41%
Infection Data, Average, Mean percentage infection relative to DMSO control (n=4, 50 uM): 8.04% and 0.83% and 7.39% and 10.06%
Infection Data, Average, Mean (Average of Exp 1-3, n 9, 1 uM): 79.70%
Infection Data, Average, Mean (Average of Exp 1-3, n 9, 5 uM): 44.64%
Infection Data, Average, Mean (Average of Exp 1-3, n 9, 10 uM): 52.11%
Infection Data, Average, Mean (Average of Exp 1-3, n 9, 25 uM): 19.49%
Infection Data, Average, Mean (Average of Exp 1-3, n 9, 50 uM): 11.46%
Percentage Infection Relative to Appropriate DMSO Control, Mean (1 uM): 59.34% and 41.11%
Percentage Infection Relative to Appropriate DMSO Control, Mean (5 uM): 26.29% and 13.69%
Percentage Infection Relative to Appropriate DMSO Control, Mean (10 uM): 6.07% and 4.47%
Percentage Infection Relative to Appropriate DMSO Control, Mean (25 uM): 3.40% and 3.46%
Percentage Infection Relative to Appropriate DMSO Control, Mean (50 uM): 2.64% and 2.63%
Infection Data, Percentage Infection Relative to Appropriate DMSO Control (Exp 1 (SMW491), 10 uM): 5.19% and 1.05% and 0.23% and 2.20% and 5.21% and 4.17% and 3.28% and 4.40%
Percentage Infection Relative to Appropriate DMSO Control (Exp 1 (SMW506), 10 uM, single wells): 6.99% and 10.55% and 9.19% and 3.42%
Percentage Infection Relative to Appropriate DMSO Control (Exp 1 (SMW506), 25 uM, single wells): 4.49% and 2.30% and 4.05% and 3.63%
Percentage Infection Relative to Appropriate DMSO Control (Exp 1 (SMW506), 50 uM, single wells): 4.22% and 4.54% and 5.07% and 2.41%
Percentage Infection Relative to Appropriate DMSO Control (Exp 2 (SMW466), 10 uM): 10.03% and 6.17% and 9.36%
Percentage Infection Relative to Appropriate DMSO Control (Exp 2 (SMW466), 25 uM): −0.69% and −1.02% and −1.54%
Percentage Infection Relative to Appropriate DMSO Control (Exp 2 (SMW466), 50 uM): −0.97% and −1.80% and 1.96%
Infection Data, Percentage Infection Relative to Appropriate DMSO Control (Exp 2 (SMW492), 1 uM): 87.68% and 68.32% and 72.99% and 69.05% and 75.23% and 75.22% and 50.23% and 54.62%
Infection Data, Percentage Infection Relative to Appropriate DMSO Control (Exp 2 (SMW492), 10 uM): 15.18% and 12.71% and 12.92% and 8.48% and 10.42% and 9.51% and 5.72% and 6.91%
Percentage Infection Relative to Appropriate DMSO Control (Exp 2 (SMW492), 1 uM, single wells): 34.50% and 31.39% and 22.69% and 24.33%
Percentage Infection Relative to Appropriate DMSO Control (Exp 2 (SMW492), 5 uM, single wells): 5.38% and 4.98% and 4.24% and 4.87%
Percentage Infection Relative to Appropriate DMSO Control (Exp 2 (SMW492), 10 uM, single wells): 3.43% and 3.30% and 3.52% and 1.74%
Percentage Infection Relative to Appropriate DMSO Control (Exp 2 (SMW492), 25 uM, single wells): 4.70% and 2.08% and 5.51% and 0.65%
Percentage Infection Relative to Appropriate DMSO Control (Exp 2 (SMW492), 50 uM, single wells): 1.27% and 0.52% and 1.57% and 1.49%
